The source of these data is patent US6218519A, “Compounds and methods for the selective treatment of cancer and bacterial infections” (Pro-Neuron, Inc., priority 1996, dated 2001).

The half-life is how long it takes for the measured level to halve. A higher half-life goes with slow decline.

The test system of one data set is A-375 (human melanoma). Put plainly: Growth inhibition studies, crystal violet staining, 72 hr. The data set is classed as cell-based. The settings on record: A-375, 72 h. The source says: Growth Inhibition Studies. […] cell lines: A-375 (human melanoma), LSl174T (colon carcinoma), ME 180 (cervical carcinoma), SK-OV-3 (ovarian carcinoma), and BT-474 (breast carcinoma) were routinely grown in […] Minimal Essential Medium (MEM, Gibco Inc.) containing 10% fetal bovine serum albumin (Atlanta Biologics). Cells were passaged weekly by trypsinization (Gibco) followed by plating at reduced density (50,000 cells/ml). They were routinely tested and found to be free of mycoplasma contamination. Cells were harvested by trypsinization and plated in 96 well plates at a density of 5,000 per well in 100 μl of MEM culture media. Cells were allowed to adhere by incubation for 24 hr at 37° C. in humidified 5% CO2. The wells containing log-phase cells were treated with complete MEM containing serial dilutions of N-[(4"RS-4"-Ethoxy-4"-β-D-glucopyranurongloxy)butyl]daunorubicin (sodium salt) 10b at concentrations ranging from 10^-5 to 10^-14 M Each well also contained a 50-fold unit excess of β-glucuronidase (i.e., 50 units of enzyme per βmole of substrate). Control reactions were run with 10b in the absence of β-glucuronidase, daunomycin alone, and daunomycin in the presence β-glucuronidase. […] Cell-bound dye was solubilized with Sorenson's Buffer (0.1 M sodium citrate, pH 4.2-ethanol, 1:1, v/v) and the wells were read on an ELISA microplate autoreader at 540 nm. […]

For data set [1], the target named is β-Glucuronidase (E. Coli) (EC 3. 2. 1. 31) (Escherichia coli, UniProt P05804). Put plainly: in vitro. The settings on record: beta-glucuronidase, phosphate buffer, pH 7.4, half-life for the disappearance of 10b.
Chain of β-Glucuronidase (E. Coli) (EC 3. 2. 1. 31) (P05804 whole entry): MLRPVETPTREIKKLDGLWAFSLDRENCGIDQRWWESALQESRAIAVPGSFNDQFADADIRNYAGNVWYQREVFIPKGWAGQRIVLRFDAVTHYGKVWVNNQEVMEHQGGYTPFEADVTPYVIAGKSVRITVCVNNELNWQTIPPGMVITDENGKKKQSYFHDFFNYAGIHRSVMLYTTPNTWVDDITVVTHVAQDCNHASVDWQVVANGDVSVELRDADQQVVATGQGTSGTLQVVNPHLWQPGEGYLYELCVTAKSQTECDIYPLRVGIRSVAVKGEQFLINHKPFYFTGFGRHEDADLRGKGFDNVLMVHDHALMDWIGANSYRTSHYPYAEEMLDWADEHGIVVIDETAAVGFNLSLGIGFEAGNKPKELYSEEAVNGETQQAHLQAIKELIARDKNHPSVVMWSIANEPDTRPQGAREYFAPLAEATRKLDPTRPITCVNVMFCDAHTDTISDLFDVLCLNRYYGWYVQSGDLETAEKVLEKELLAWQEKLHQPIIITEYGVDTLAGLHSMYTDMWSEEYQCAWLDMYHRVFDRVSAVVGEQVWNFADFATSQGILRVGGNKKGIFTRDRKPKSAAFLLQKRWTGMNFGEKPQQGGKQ
The test system of a further data set is carcinoma cells. Conditions: glucuronide versus parent epirubicin; cited from earlier work.

Each structure is given as a SMILES string. Counter-ions that a name gives are not always drawn. Like-named read-outs stand apart in the source and are kept apart here.

Regarding `CCOC(CCCN[C@H]1C[C@H](O[C@H]2C[C@](O)(C(C)=O)Cc3c(O)c4c(c(O)c32)C(=O)c2c(OC)cccc2C4=O)O[C@@H](C)[C@H]1O)O[C@@H]1O[C@H](C(=O)O)[C@@H](O)[C@H](O)[C@H]1O` (stereo partly drawn) [Compound 10b, N-[(4"RS)-4"-Ethoxy-4"-(β-D-glucopyranuronyloxy)butyl]daunorubicin (Sodium salt)], the IC50 came out at 200 ng/mL in the data set on A-375 (human melanoma) (read-out: IC50 (drug concentration that inhibited cell growth by 50%), A375 cell line, in the absence of β-glucuronidase, 72 hr) and 0.02 ng/mL with A-375 (human melanoma) (read-out: IC50 (drug concentration that inhibited cell growth by 50%), A375 cell line, in the presence of glucuronidase (50 units of enzyme per µmole of substrate), 72 hr). For the same compound, the half-life at 100 µM in data set [1] is 8.1 h; in data set [1] (10-fold enzyme excess (10 units of enzyme per µmol of substrate), 0.05 M potassium phosphate buffer pH 7.4), 6.9 h; in data set [1] (20-fold enzyme excess (20 units of enzyme per µmol of substrate), 0.05 M potassium phosphate buffer pH 7.4), 2 h.

As to `COc1cccc2c1C(=O)c1c(O)c3c(c(O)c1C2=O)C[C@@](O)(C(=O)CO)C[C@@H]3O[C@H]1C[C@H](N)[C@@H](O[C@@H]2O[C@H](C(=O)O)[C@@H](O)[C@H](O)[C@H]2O)[C@H](C)O1` [glucuronide of epirubicin], the “detoxification of the parent drug” value with carcinoma cells is “up to 1000 fold”.
